Data set [1] can be described thus: Apparent permeability from apical to basolateral side in human Caco2 cells by LC-MS analysis. Format: ADME, cell-based. Conditions: Caco-2. In general terms: Caco-2 cells form a polarised layer with tight junctions and transporters.
Data set [2] is described as follows: Apparent permeability of the compound at 50 uM after 5 hrs by PAMPA method. It counts as physicochemical.

Square brackets hold non-standard residues; d marks the D form. Peptide text beside a SMILES is read from it. NMeW = CN[C@@H](Cc1c[nH]c2ccccc12)C(=O)O; NMeL = CN[C@@H](CC(C)C)C(=O)O; dNMeL = CN[C@H](CC(C)C)C(=O)O; Sar = CNCC(=O)O

For `CC(C)C[C@H]1C(=O)N2CCC[C@H]2C(=O)N[C@@H](Cc2ccccc2)C(=O)N[C@@H](Cc2ccccc2)C(=O)N[C@@H](Cc2c[nH]c3ccccc23)C(=O)N[C@@H](C(C)C)C(=O)N1C` (cyclo(FFWV[NMeL]P)), the Papp A→B – broadly, the apparent permeability from the apical to the basolateral side of a cell layer – in data set [1] is 6.82 ×10⁻⁶ cm/s.
Regarding `CC[C@H](C)[C@@H]1NC(=O)[C@H](Cc2c[nH]c3ccccc23)NC(=O)[C@H]2CCCN2C(=O)[C@H]([C@@H](C)CC)NC(=O)[C@H]([C@@H](C)CC)NC(=O)[C@@H](CC(C)C)NC1=O`, the Papp A→B in data set [1] stood at 3.06 ×10⁻⁶ cm/s. Also, the Papp – broadly, a coefficient for how fast a substance crosses the barrier – at 5 h, 50 µM in data set [2] was 0.41 ×10⁻⁶ cm/s.
On the same counts, the results for `CC(C)C[C@@H]1NC(=O)[C@H](Cc2ccc(O)cc2)NC(=O)[C@H]2CCCN2C(=O)[C@H](CC(C)C)NC(=O)[C@H](CC(C)C)N(C)C(=O)[C@@H](CC(C)C)N(C)C1=O` are 10.8 ×10⁻⁶ cm/s and 0.96 ×10⁻⁶ cm/s.
For the compound `CC(C)C[C@H]1C(=O)N2CCC[C@H]2C(=O)N[C@@H](Cc2ccc(O)cc2)C(=O)N(C)[C@H](C)C(=O)N(C)CC(=O)N[C@@H](Cc2ccccc2)C(=O)N1C`, the Papp A→B in data set [1] was below 0.14 ×10⁻⁶ cm/s.
For the compound `CN1C(=O)[C@H]2CCCN2C(=O)[C@H](CCCCN)NC(=O)[C@H](CCCNC(=N)N)NC(=O)[C@@H](CCCNC(=N)N)NC(=O)[C@H](CCCNC(=N)N)NC(=O)[C@@H]1Cc1c[nH]c2ccccc12`, the Papp A→B in data set [1] was below 0.14 ×10⁻⁶ cm/s.
For `CC(C)C[C@@H]1C(=O)N(C)[C@@H](CC(C)C)C(=O)N[C@@H](Cc2ccc(O)cc2)C(=O)N(C)[C@H](C)C(=O)N(C)CC(=O)N[C@@H](Cc2ccccc2)C(=O)N1C`, in data set [1], the Papp A→B amounted to 4.77 ×10⁻⁶ cm/s. Also, the Papp at 5 h, 50 µM in data set [2] was found to be 0.93 ×10⁻⁶ cm/s.
On the same counts, the results for `CC(C)C[C@@H]1NC(=O)[C@@H](CC(C)C)NC(=O)[C@@H](CC(C)C)NC(=O)[C@@H](CC(C)C)NC(=O)[C@H](Cc2c[nH]c3ccccc23)NC(=O)[C@@H]2CCCN2C1=O` are 0.36 ×10⁻⁶ cm/s and 0.28 ×10⁻⁶ cm/s.
With `CC(C)C[C@@H]1NC(=O)[C@H](C(C)C)NC(=O)[C@H](Cc2c[nH]c3ccccc23)N(C)C(=O)[C@H](Cc2ccccc2)NC(=O)[C@H](Cc2ccccc2)NC(=O)[C@@H]2CCCN2C1=O` (cyclo(FF[NMeW]VLP)), the Papp A→B in data set [1] worked out at 1.7 ×10⁻⁶ cm/s.
Regarding `CC(C)C[C@@H]1NC(=O)[C@H](Cc2ccccc2)NC(=O)CNC(=O)[C@@H](C)NC(=O)[C@H](Cc2ccc(O)cc2)NC(=O)[C@@H]2CCCN2C1=O`, the Papp A→B in data set [1] was below 0.14 ×10⁻⁶ cm/s. Besides, in data set [2], the Papp at 5 h, 50 µM amounted to 0.03 ×10⁻⁶ cm/s.
Regarding `CC(C)C[C@H]1NC(=O)[C@H](Cc2ccccc2)NC(=O)CN(C)C(=O)[C@@H](C)N(C)C(=O)[C@H](Cc2ccc(O)cc2)NC(=O)[C@@H]2CCCN2C1=O`, in data set [1], the Papp A→B is 0.63 ×10⁻⁶ cm/s. Further, the Papp at 5 h, 50 µM in data set [2] was 0.07 ×10⁻⁶ cm/s.
In the case of `CC(C)C[C@@H]1NC(=O)CNC(=O)[C@@H]2CCCN2C(=O)[C@H](Cc2ccc(O)cc2)NC(=O)[C@H](Cc2ccccc2)NC(=O)[C@@H]2CCCN2C1=O` (cyclo(FYPGLP)), the Papp A→B in data set [1] worked out at 0.11 ×10⁻⁶ cm/s. Moreover, the Papp at 5 h, 50 µM in data set [2] turned out to be 0.01 ×10⁻⁶ cm/s.
On the same counts, the results for `CC(C)C[C@H]1NC(=O)[C@@H](Cc2ccccc2)NC(=O)CNC(=O)[C@H](C)NC(=O)[C@H](Cc2ccc(O)cc2)NC(=O)[C@@H]2CCCN2C1=O` are below 0.14 ×10⁻⁶ cm/s and 0.01 ×10⁻⁶ cm/s.
On the same counts, the results for `CC(C)C[C@@H]1NC(=O)[C@H](Cc2ccc(O)cc2)NC(=O)[C@@H]2CCCN2C(=O)[C@@H](CC(C)C)NC(=O)[C@@H](CC(C)C)N(C)C(=O)[C@@H](CC(C)C)N(C)C1=O` are 21.8 ×10⁻⁶ cm/s and 3.83 ×10⁻⁶ cm/s.
As to `CC(C)C[C@@H]1NC(=O)[C@H](Cc2ccccc2)NC(=O)[C@H]([C@@H](C)O)NC(=O)CNC(=O)[C@H](C)NC(=O)[C@H](Cc2ccc(O)cc2)NC1=O` (cyclo(AGTFLY)), the Papp A→B in data set [1] came to 0.46 ×10⁻⁶ cm/s. In addition, in data set [2], the Papp at 5 h, 50 µM came to 0.02 ×10⁻⁶ cm/s.
On the same counts, the results for `C[C@@H](O)[C@@H]1NC(=O)[C@@H](CCCCN)NC(=O)[C@@H](Cc2c[nH]c3ccccc23)NC(=O)[C@H](Cc2ccccc2)NC(=O)[C@@H]2CCCN2C(=O)[C@@H](Cc2ccccc2)NC1=O` are 0.2 ×10⁻⁶ cm/s and 0.09 ×10⁻⁶ cm/s.
As for `CC(C)C[C@H]1C(=O)N2CCC[C@@H]2C(=O)N(C)[C@@H](Cc2ccc(O)cc2)C(=O)N[C@@H](C)C(=O)NCC(=O)N(C)[C@@H](Cc2ccccc2)C(=O)N1C`, the Papp A→B in data set [1] is 0.1 ×10⁻⁶ cm/s. In data set [2], the Papp at 5 h, 50 µM stood at 0.16 ×10⁻⁶ cm/s.
For `CC(C)C[C@H]1NC(=O)[C@H](Cc2ccccc2)NC(=O)CNC(=O)[C@@H](C)NC(=O)[C@H](Cc2ccc(O)cc2)NC(=O)[C@@H]2CCCN2C1=O`, in that order: 0.58 ×10⁻⁶ cm/s and 0.07 ×10⁻⁶ cm/s.
On the same counts, the results for `CC(C)C[C@@H]1C(=O)N(C)[C@@H](CC(C)C)C(=O)N(C)[C@@H](CC(C)C)C(=O)N2CCC[C@@H]2C(=O)N[C@@H](Cc2ccc(O)cc2)C(=O)N(C)[C@@H](CC(C)C)C(=O)N1C` are 15.8 ×10⁻⁶ cm/s and 1.52 ×10⁻⁶ cm/s.
For `CC(C)C[C@@H]1NC(=O)[C@H](Cc2ccccc2)NC(=O)[C@H]([C@@H](C)O)NC(=O)CNC(=O)[C@H]([C@@H](C)O)NC(=O)[C@H](Cc2ccc(O)cc2)NC1=O` (cyclo(FLYTGT)), in data set [1], the Papp A→B amounted to 0.04 ×10⁻⁶ cm/s. Besides, in data set [2], the Papp at 5 h, 50 µM was found to be 0.02 ×10⁻⁶ cm/s.
For `C[C@@H](O)[C@@H]1NC(=O)[C@H](CCCCN)NC(=O)[C@@H](Cc2c[nH]c3ccccc23)NC(=O)[C@H](Cc2ccccc2)NC(=O)[C@@H]2CCCN2C(=O)[C@H](Cc2ccccc2)NC1=O`, in that order: 0.93 ×10⁻⁶ cm/s and 0.08 ×10⁻⁶ cm/s.
For `CC(C)C[C@@H]1NC(=O)[C@@H](CC(C)C)NC(=O)[C@@H](CC(C)C)NC(=O)[C@H](Cc2c[nH]c3ccccc23)NC(=O)[C@@H]2CCCN2C(=O)[C@@H](CC(C)C)NC1=O`, in that order: 17.5 ×10⁻⁶ cm/s and 2.53 ×10⁻⁶ cm/s.
On the same counts, the results for `CC(C)C[C@@H]1NC(=O)[C@H](Cc2ccccc2)NC(=O)[C@H]([C@@H](C)O)NC(=O)CN(C)C(=O)[C@H]([C@@H](C)O)NC(=O)[C@H](Cc2ccc(O)cc2)NC1=O` (cyclo(FLYT[Sar]T)) are 0.17 ×10⁻⁶ cm/s and 0.02 ×10⁻⁶ cm/s.
On to `CC(C)C[C@@H]1NC(=O)[C@@H](CC(C)C)N(C)C(=O)[C@H](CC(C)C)NC(=O)[C@H](Cc2ccc(O)cc2)NC(=O)[C@H]2CCCN2C(=O)[C@H](CC(C)C)NC1=O` (cyclo(LL[dP]YL[dNMeL])), for which, in data set [2], the Papp at 5 h, 50 µM stood at 0.77 ×10⁻⁶ cm/s.
For the compound `CC(C)C[C@@H]1NC(=O)[C@H](Cc2c[nH]c3ccccc23)NC(=O)[C@@H]2CCCN2C(=O)[C@H]2CCCN2C(=O)[C@@H](CC(C)C)NC(=O)[C@H](CC(C)C)NC1=O`, the Papp A→B in data set [1] was 0.21 ×10⁻⁶ cm/s. Also, the Papp at 5 h, 50 µM in data set [2] was 0.19 ×10⁻⁶ cm/s.
On the same counts, the results for `CC(C)C[C@@H]1C(=O)N(C)[C@H](CC(C)C)C(=O)N[C@H](CC(C)C)C(=O)N(C)[C@@H](CC(C)C)C(=O)N2CCC[C@H]2C(=O)N[C@@H](Cc2ccc(O)cc2)C(=O)N1C` are 16.4 ×10⁻⁶ cm/s and 1.88 ×10⁻⁶ cm/s.
For `CC(C)C[C@@H]1NC(=O)[C@H](Cc2c[nH]c3ccccc23)NC(=O)[C@H]2CCCN2C(=O)[C@H](CC(C)C)NC(=O)[C@H](CC(C)C)NC(=O)[C@@H](CC(C)C)NC1=O`, in that order: 5.95 ×10⁻⁶ cm/s and 1.67 ×10⁻⁶ cm/s.
Turning to `C=C[C@H]1C[N@@]2CC[C@H]1C[C@@H]2[C@@H](O)c1ccnc2ccc(OC)cc12` [QUINIDINE], in data set [2], the Papp at 5 h, 50 µM came out at 3.28 ×10⁻⁶ cm/s.
As to `CC[C@H](C)[C@@H]1NC(=O)[C@H](C(C)C)NC(=O)[C@H](CC(C)C)NC(=O)CNC(=O)[C@@H]2CCCN2C(=O)[C@H](Cc2ccc(O)cc2)NC1=O` (cyclo(GLVIYP)), the Papp A→B in data set [1] was 0.11 ×10⁻⁶ cm/s.

These data come from ChEMBL document CHEMBL3425496, “Exploring experimental and computational markers of cyclic peptides: Charting islands of permeability” (Eur J Med Chem, 2015).
